Data set [1] relates to phenylquinone-induced writhing reactions. Put plainly: phenylquinone-induced writhing test in mice. In kind it is in vivo, mouse. Here is the method: The antinociceptive activity of the compounds according to the invention was investigated in mice in the phenylquinone-induced writhing test, modified by I. C. Hendershot, J. Forsaith, J. Pharmacol. Exp. Ther. 125, 237-240 (1959). Male NMRI mice weighing 25-30 g were employed for this. Groups of 10 animals per substance dose received 0.3 ml/mouse of a 0.02% aqueous solution of phenylquinone (phenylbenzoquinone, Sigma, Deisenhofen; preparation of the solution with the addition of 5% ethanol and storage in a water bath at 45° C.) administered intraperitoneally 10 minutes after intravenous administration of a compound according to the invention. The animals were placed individually in observation cages. The number of pain-induced stretching movements (so-called writhing reactions=straightening of the body with stretching of the hind extremities) was counted by means of a push-button counter for 5-20 minutes after the administration of phenylquinone.
The ED50 values of the writhing reaction were calculated by means of regression analysis (evaluation program, Martens EDV Service, Eckental) from the dose-dependent decrease in writhing reactions compared with animal groups investigated in parallel to which no compound according to the invention was administered.
The majority of the substances were tested in the standard dose of 10 mg/kg. The percentage inhibition (% inhibition) of the writhing reactions by a substance was then calculated according to the following equation: [formula] The results are summarized in table 1 for selected compounds.
Background: An intraperitoneal irritant provokes the stretching counted in writhing tests.

Setting [2] is: male NMRI mice, standard dose of 10 mg/kg.

The structures appear in SMILES notation.

With `CN(C)CC1=C(Cc2ccc(Cl)cc2)c2ccc(O)cc2CC1.Cl`, the melting point is 110 °C (dec.).
On to `CN(C)CC1=C(Cc2ccc(Cl)cc2Cl)c2ccccc2CC1.Cl`, for which the melting point lay in the range of 208 to 209 °C.
Still for that read-out and setting: as for `CN(C)CC1=C(Cc2ccc(Cl)cc2)c2ccccc2CCC1.Cl`, the figure is 240 to 243 °C.
For the compound `CN(C)CC1CCCc2ccccc2/C1=C/c1ccc(Cl)cc1.Cl` (racemic) [Example 4e, E-(5RS)-[5-(4-Chlorobenzylidene)-6,7,8,9-tetrahydro-5H-benzocyclohepten-6-ylmethyl]-dimethylamine hydrochloride], the “Writhing test, mouse, i.v. decrease in writhing reactions (% inhibition)” value in data set [1] (setting [2]) was found to be 69%.
As for `CN(C)CC1CCOc2ccccc2/C1=C/c1cccc(O)c1.Cl` (racemic) [Example 6b, E-(4RS)3-(4-Dimethylaminomethyl-3,4-dihydro-2H-benzo[b]oxepin-5-ylidene-methyl)-phenol hydrochloride], the “Writhing test, mouse, i.v. decrease in writhing reactions (% inhibition)” value in data set [1] (male NMRI mice, dose 21.5 mg/kg as printed in table 1) turned out to be 91% [21.5 mg/kg]. Further, in data set [1] (mouse, i.v., dose of 2.15 mg/kg body weight as printed in text), the “inhibition of writhing reactions” value is 91%.
On to `CN(C)CC1CCOc2ccccc2/C1=C\c1cccc(O)c1.Cl` (racemic) [Example 6c, Z-(4RS)3-(4-Dimethylaminomethyl-3,4-dihydro-2H-benzo[b]oxepin-5-ylidene-methyl)-phenol hydrochloride], for which the “Writhing test, mouse, i.v. decrease in writhing reactions (% inhibition)” value in data set [1] (setting [2]) is reported as 78%.
On the same count and under the same terms, as for `CN(C)CC1CCOc2ccccc2/C1=C\c1ccc(Cl)cc1.Cl` (racemic) [Example 7c, Z-(4RS) [5-(4-Chlorobenzylidene)-2,3,4,5-tetrahydro-benzo[b]oxepin-4-yl-methyl]-dimethylamine hydrochloride], the figure is 79%.
As to `CN(C)CC1=C(Cc2ccc(Cl)cc2)c2ccccc2CC1.Cl` [Example 2], the “Writhing test, mouse, i.v. ED50” value in data set [1] (male NMRI mice, 10 minutes before phenylquinone i.p.) is reported as 6.85 mg/kg. In addition, the “Writhing test, mouse, i.v. decrease in writhing reactions (% inhibition)” value in data set [1] (setting [2]) turned out to be 61.5%.
Consider `CN(C)CC1=C(Cc2cccc(O)c2)c2ccccc2CC1.Cl` [Example 3, 3-(2-Dimethylaminomethyl-3,4-dihydro-naphth-1-ylmethyl)-phenol hydrochloride], for which, in data set [1] (setting [2]), the “Writhing test, mouse, i.v. decrease in writhing reactions (% inhibition)” value came out at 93%.
As for `CN(C)CC1=C(Cc2ccc(Cl)cc2)c2cccc(O)c2CC1.Cl` [Example 4c, 5-(4-Chlorobenzyl)-6-dimethylaminomethyl-7,8-dihydro-naphth-1-ol hydrochloride], the melting point lay in the range of 136 to 139 °C. Further, the “Writhing test, mouse, i.v. decrease in writhing reactions (% inhibition)” value in data set [1] (setting [2]) is recorded as 84%.
`CN(C)CC1=C(Cc2cccc(O)c2)c2ccccc2OCC1.Cl` [Example 6a, 3-(4-Dimethylaminomethyl-2,3-dihydro-benzo[b]oxepin-5-ylmethyl)-phenol hydrochloride]: the “Writhing test, mouse, i.v. decrease in writhing reactions (% inhibition)” value in data set [1] (setting [2]) is given as 95%.

Usually melting point stands for the temperature of the solid-liquid transition.

These data come from patent US6890952B2, “Cyclic substituted aminomethyl compounds and medicaments comprising these compounds” (Gruenenthal GmbH, priority 2000, dated 2005).
